Reference: ChEMBL document CHEMBL5727469, “Inhibitors of the renal outer medullary potassium channel” (2019)

Molecular target: T1, ATP-sensitive inward rectifier potassium channel 1 (Homo sapiens, UniProt P48048)
T1 sequence (P48048 whole entry): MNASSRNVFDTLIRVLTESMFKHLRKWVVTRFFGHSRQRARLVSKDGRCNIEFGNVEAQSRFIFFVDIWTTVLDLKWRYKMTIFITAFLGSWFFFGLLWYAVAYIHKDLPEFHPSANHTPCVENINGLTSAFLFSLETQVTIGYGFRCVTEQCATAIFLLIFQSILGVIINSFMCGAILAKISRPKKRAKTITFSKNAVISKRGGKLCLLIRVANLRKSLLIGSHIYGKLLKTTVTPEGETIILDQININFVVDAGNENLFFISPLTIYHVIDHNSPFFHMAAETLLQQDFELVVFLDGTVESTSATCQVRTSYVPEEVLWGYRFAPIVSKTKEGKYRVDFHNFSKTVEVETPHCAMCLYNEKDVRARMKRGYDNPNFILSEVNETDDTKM
Assay: Thallium Flux Assay: 1. Seed HEK-hKir1.1 cells (50 μl at 20,000 cells/well) in 384-well PDL coated Microplates2. Allow cells to adhere overnight in humidified 37° C./10% CO2 incubator3. Completely remove cell growth media from microplate and replace with 25 μl loading buffer4. Incubate Microplate at room temperature, protected form light, for 90 min5. Remove loading buffer and replace with 25 μl 1× Assay Buffer±test compound.6. Incubate microplate at room temperature, protected from light, for 30 min7. At FLIPR-Tetra 384: Add stimulant (Thallium/Potassium) solution to microplate and monitor fluorescence. Excitation=400 nm, Emission=460 & 580 nm. Collect data for ˜10 min.Data Calculation—The fluorescence intensity of wells containing 3 μM of a standard control ROMK inhibitor of the present invention is used to define the ROMK-sensitive component of thallium flux. Fluorescence in the presence of test compounds is normalized to control values to provide % fluorescence change. IC50 values represent the concentration of compound that inhibits 50% of the ROMK thallium flux signal.

IC50 | Structure (SMILES)
796 nM | CC1=C(N2CCOC3(CCN(C[C@H](O)c4ccc5c(c4C)COC5=O)CC3)C2)CCC1=O
285 nM | CC1=C(N2CCOC3(CCN(CC(O)c4ccc(-n5cnnn5)cc4C)CC3)C2)CCC1=O (stereo not given)

Continued, compound first:

Structure (SMILES) | IC50
CC1=C(N2CCOC3(CCN(CC(O)c4ccc(-n5cnnn5)nc4C)CC3)C2)CCC1=O (stereo not given) | 157 nM
CC1=C(N2CCOC3(CCN(C[C@H](O)c4ccc(-n5cnnn5)nc4)CC3)C2)CCC1=O | 167 nM
CC1=C(N2CCC3(CCN(CC(O)c4ccc(-n5cnnn5)nc4C)CC3)C2=O)CCC1=O (single isomer, unassigned) | 842 nM
